Results from ChEMBL document CHEMBL1201862, “PubChem BioAssay data set” (2004).
Activity calls are given as the source filed them.

Legend:
Major prion protein = Major prion protein (Homo sapiens, UniProt P04156); format: functional, cell-based
cells [1] = experiment: cells
[2] = inhibitors of clade B AD8 Env fusion, dose response, cell-based, cherry-pick (AID 652062); format: functional;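 further: luciferase signal from cell-cell fusion driven by HIV-1 clade B AD8 Env; potency is for inhibitors of fusion seen as a drop in luminescence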
[3] = CEM21 lymphoblast cell cytotoxicity, dose response, cytotoxicity control for viral fusion inhibitor project, CellTiter-Glo luminescence, cherry-picked (AID 652042); format: functional, cell-based;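 further: potency for signal decrease meaning cytotoxicity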
[4] = target: COUP transcription factor 2 (Homo sapiens, UniProt P24468); experiment: Luminescence-based cell-based high throughput dose response assay to identify inhibitors of COUP-TFII (NR2F2).; format: functional;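 further: HEK293 cells transiently cotransfected with COUP-TFII expression vector and reporter; luciferase reporter luminescence driven by COUP-TFII from the pX2-168 reporter plasmid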
[5] = off-target signal loss in HeLa-CEM21 co-culture – HeLa F-luc CTL cells, cherry-picked, counter-screen for HIV-1 Env fusion inhibitor project, dose response (AID 652040); format: functional, cell-based;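 further: potency for signal decrease marking cytotoxic or nonspecific inhibition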
[6] = target: Mitogen-activated protein kinase 10 (Homo sapiens, UniProt P53779); experiment: Dose response biochemical screening assay for inhibitors of c-Jun N-Terminal Kinase 3 (JNK3). [Related pubchem assays: 746 ]
[7] = target: T1, Carboxy-terminal domain RNA polymerase II polypeptide A small phosphatase 1 (Homo sapiens, UniProt Q9GZU7); experiment: inhibitors of CTDSP1, concentration-response testing, biochemical assay, absorbance-based, actives from ultra-high-throughput screening (AID 540297); format: functional
T1 sequence (Q9GZU7 whole entry): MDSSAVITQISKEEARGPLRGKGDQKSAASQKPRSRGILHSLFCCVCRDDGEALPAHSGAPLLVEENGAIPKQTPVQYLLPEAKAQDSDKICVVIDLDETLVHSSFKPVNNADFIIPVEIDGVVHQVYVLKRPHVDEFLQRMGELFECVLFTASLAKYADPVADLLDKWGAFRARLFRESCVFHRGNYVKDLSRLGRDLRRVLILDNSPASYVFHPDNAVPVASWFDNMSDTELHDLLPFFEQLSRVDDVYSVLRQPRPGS

[8] = target: T2, Ubiquitin-conjugating enzyme E2 N (Homo sapiens, UniProt P61088); format: functional;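 further: Dose-response confirmation in a TR-FRET assay detecting UBC13-driven polyubiquitin chain formation, inhibition measured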
T2 sequence (P61088 whole entry): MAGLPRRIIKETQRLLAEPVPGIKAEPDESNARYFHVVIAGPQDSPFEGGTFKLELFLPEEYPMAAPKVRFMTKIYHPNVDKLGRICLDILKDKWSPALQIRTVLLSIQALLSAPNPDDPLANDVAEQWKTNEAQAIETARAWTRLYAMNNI

[9] = T. cruzi growth inhibition in host cells, dose response, cell-based, plate reader, dry powder, set 2 (AID 652275); format: functional
[10] = target: T3, Heat shock factor protein 1 (Mus musculus, UniProt P38532); experiment: HSF1 potentiators in luciferase reporter cells, confirmation, cell-based, NIH3T3, luminescence, dose retest (AID 435004); format: functional;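 further: stress induced by proteasome inhibitor MG132 added 30 min after compound; luciferase reporter driven by HSF1 response element in NIH3T3 cells; actives raise luminescence as potentiators of the MG132 stress response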
T3 sequence (P38532 whole entry): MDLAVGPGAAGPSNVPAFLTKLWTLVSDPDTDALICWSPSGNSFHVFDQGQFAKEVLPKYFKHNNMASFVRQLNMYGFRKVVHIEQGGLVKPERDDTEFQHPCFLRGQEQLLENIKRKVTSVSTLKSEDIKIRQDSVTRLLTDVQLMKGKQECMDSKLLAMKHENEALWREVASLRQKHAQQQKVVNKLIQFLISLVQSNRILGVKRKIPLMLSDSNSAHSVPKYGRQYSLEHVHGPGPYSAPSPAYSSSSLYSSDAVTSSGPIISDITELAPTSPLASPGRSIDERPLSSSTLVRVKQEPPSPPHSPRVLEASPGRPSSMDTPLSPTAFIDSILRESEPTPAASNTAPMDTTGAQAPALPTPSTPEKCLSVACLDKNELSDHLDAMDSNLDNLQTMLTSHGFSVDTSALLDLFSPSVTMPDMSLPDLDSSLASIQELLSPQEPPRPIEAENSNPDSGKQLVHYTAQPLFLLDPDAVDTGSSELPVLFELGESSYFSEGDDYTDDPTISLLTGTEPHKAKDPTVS

[11] = target: T4, Trace amine-associated receptor 1 (Homo sapiens, UniProt Q96RJ0); experiment: Counterscreen for agonists of the human trace amine associated receptor 1 (hTAAR1): Fluorescence-based cell-based high throughput dose response assay to identify hTAAR1 agonist that also desensitize TAAR1 receptor response.; format: functional
T4 sequence (Q96RJ0 whole entry): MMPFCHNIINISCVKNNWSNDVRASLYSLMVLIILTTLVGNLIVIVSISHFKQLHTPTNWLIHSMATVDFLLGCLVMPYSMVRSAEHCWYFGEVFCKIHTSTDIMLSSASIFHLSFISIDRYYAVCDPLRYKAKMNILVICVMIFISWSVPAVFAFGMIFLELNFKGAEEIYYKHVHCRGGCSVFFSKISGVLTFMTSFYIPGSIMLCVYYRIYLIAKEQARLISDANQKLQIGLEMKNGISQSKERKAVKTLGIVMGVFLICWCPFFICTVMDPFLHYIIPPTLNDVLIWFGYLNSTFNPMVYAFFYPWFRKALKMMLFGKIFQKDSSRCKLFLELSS

cells [12] = format: functional, cell-based
[13] = target: T4, Trace amine-associated receptor 1; experiment: Fluorescence-based cell-based high throughput dose response assay to identify agonists of the human trace amine associated receptor 1 (TAAR1).; format: functional
cells [14] = format: functional, cell-based; remark: listed apart in the source
Paired box protein Pax-8 = Paired box protein Pax-8 (Homo sapiens, UniProt Q06710); experiment: inhibitors of PAX8-driven TPO luciferase reporter, dose response, RMG-I cells, cherry-pick (AID 687027); format: functional, cell-based;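 further: luciferase reporter driven by Pax8 target thyroperoxidase promoter measured by SteadyGlo luminescence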
[15] = cytotoxicity in COV434 cells, dose response, cytotoxicity control for PAX8 inhibitor project, cell-based, plate reader, dry powder, SA7 (AID 743145); format: functional
[16] = cytotoxicity dependent on PAX8, dose response, cell-based, plate reader, dry powder (AID 743049); format: functional
[17] = PAX2 cell-based inhibition, dose response, selectivity assay for PAX8 inhibitor project, plate reader, dry powder samples (AID 743048); format: functional;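 further: HEK293 cells carrying a WT1 promoter luciferase reporter driven by expressed Pax2; potency is for inhibition of Pax2 driven reporter signal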
[18] = PAX5 activity inhibitors, dose response, selectivity assay for PAX8 inhibitor project, cell-based, plate reader, dry powder samples (AID 743047); format: functional;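 further: HEK293 cells carrying a Pax5 driven CD19 promoter luciferase reporter; potency of inhibitors that lower reporter luminescence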
[19] = cytotoxicity in COV362 ovarian cancer cells, dose response, cytotoxicity control for PAX8 inhibitor project, cell-based, plate reader, dry powder, SA12 (AID 743144); format: functional
[20] = Luminescence Cell-Based Dose Response HTS to Identify Activators of Luciferase Translation or Activity in H4 […] Cells. [Related pubchem assays: 1829 (Project Summary), 1814 (Primary HTS)]; format: functional
H4 = experiment: Luminescence Cell-Based Dose Response HTS to Identify Activators of 5'UTR Stem-Loop Driven Prion Protein mRNA Translation in H4 Neuroglioblastoma Cells. [Related pubchem assays: 1829 (Project Summary), 1814 (Primary HTS)]; format: functional; conditions: Homo sapiens
[21] = Luminescence Cell-Based Dose Response to Identify Activators of 5'UTR Stem-Loop Driven Prion Protein mRNA Translation in H4-C Neuroglioblastoma Cells. [Related pubchem assays: 1829 (Project Summary), 1814 (Primary HTS)]; format: functional
[22] = Luminescence Cell-Based Dose Response to Identify Activators of Luciferase Translation or Activity in H4-C Neuroglioblastoma Cells. [Related pubchem assays: 1829 (Project Summary), 1814 (Primary HTS)]; format: functional
[23] = Luminescence Cell-Based Dose Confirmation to Identify Activators of 5'UTR Stem-Loop Driven Alpha-Synuclein mRNA Translation in H4 Neuroglioblastoma Cells. [Related pubchem assays: 1829 (Project Summary), 1814 (Primary HTS)]; format: functional
[24] = target: Disintegrin and metalloproteinase domain-containing protein 17 (Homo sapiens, UniProt P78536); experiment: exosite inhibitors of ADAM17, dose response, biochemical (AID 743260)
[25] = ADAM10 protease inhibitors, dose response, selectivity assay for ADAM17 exosite inhibitor project, biochemical, FRET peptide substrate, recombinant human ADAM10 (AID 743259);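 further: ADAM10 enzyme cleaving a FRET peptide substrate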
Streptokinase A = target: T5, Streptokinase A (Streptococcus pyogenes serotype M1, UniProt P10520); experiment: S. pyogenes streptokinase expression inhibitors, potency, dose response, plasminogen activation absorbance, OD405 (AID 1914); format: functional, Streptococcus pyogenes M1 GAS;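 further: secreted streptokinase activity via plasminogen activation per viability signal from cell pellet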
T5 sequence (P10520 whole entry): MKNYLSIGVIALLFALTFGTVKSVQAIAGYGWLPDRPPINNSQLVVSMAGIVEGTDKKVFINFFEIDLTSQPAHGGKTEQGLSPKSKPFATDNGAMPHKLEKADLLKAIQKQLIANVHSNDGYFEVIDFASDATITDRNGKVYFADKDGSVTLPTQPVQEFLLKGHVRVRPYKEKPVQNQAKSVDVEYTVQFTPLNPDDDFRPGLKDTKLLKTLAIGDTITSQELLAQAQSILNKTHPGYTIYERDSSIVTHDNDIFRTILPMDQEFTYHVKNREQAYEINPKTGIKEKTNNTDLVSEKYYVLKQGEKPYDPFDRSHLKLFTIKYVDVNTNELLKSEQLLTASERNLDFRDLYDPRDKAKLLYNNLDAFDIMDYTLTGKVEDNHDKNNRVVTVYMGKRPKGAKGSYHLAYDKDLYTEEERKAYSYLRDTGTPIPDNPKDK

[26] = target: Aryl hydrocarbon receptor (Homo sapiens, UniProt P35869); experiment: Luminescence-based cell-based high throughput dose response assay for activators of the Aryl Hydrocarbon Receptor (AHR). [Related pubchem assays: 2796 (Primary screen (AHR activators in singlicate)), 2845 (Confirmation screen (AHR activators in triplicate)), 434939 (Counterscreen (PXR activators in triplicate)), 2804 (Summary (AHR activators))]; format: ADME
[27] = target: FAD-linked sulfhydryl oxidase ALR (Homo sapiens, UniProt P55789); experiment: inhibitors of human ALR sulfhydryl oxidase, dose response, biochemical, H2O2 detection, luminescence, cherry-pick (AID 493248)
Albumin = Albumin (Bos taurus, UniProt P02769); experiment: Counterscreen for inhibitors of T-cell receptor (TCR)-CD3 interaction: Fluorescence-based biochemical high throughput dose response assay to identify inhibitors of T-cell receptor (TCR)-CD3 interaction using a TAMRA-labeled BSA probe.; format: functional
[28] = target: T6, Polyadenylate-binding protein 1 (Homo sapiens, UniProt P11940); experiment: PABP1 MLLE–PAM2 binding inhibitor potency, dose response, biochemical, fluorescence polarization, FITC-PAM2 peptide (AID 602259); format: functional; conditions: read-out: IC50_Mean
[29] = target: Heat shock protein HSP 90-alpha (Homo sapiens, UniProt P07900); experiment: Luminescence-based dose response biochemical high throughput screening assay for inhibitors of the Heat Shock Protein 90 (HSP90). [Related pubchem assays: 1831 (Summary AID.), 1846 (Confirmation screen.), 1789 (Primary screen.)]
Cytochrome P450 2C9 = Cytochrome P450 2C9 (Homo sapiens, UniProt P11712)
[30] = target: T6, Polyadenylate-binding protein 1; experiment: PABP1 MLLE–PAM2 interaction inhibitors, dose response, miRNA deadenylation inhibitor project, biochemical, fluorescence polarization, Cy5-PAM2 peptide, secondary (AID 602260); format: functional; conditions: read-out: IC50_Mean
[31] = inhibitors of HIV Env-driven cell fusion, dose response, cherry-pick (AID 652057); format: functional, cell-based

COc1ccc(C(=O)NNC(=O)CSc2nc(C(C)C)nc3ccccc23)cc1
IC50 (Major prion protein): 1.98 µM (active) | IC50 (cells [1]): > 138 µM (inactive)

N#CCSc1nnc(-c2sc3ccccc3c2Cl)o1
AC50 [2]: 6.32 µM (active) | AC50 [3]: 46.4 µM (active) | IC50 [4]: 12 µM (inactive) | AC50 [5]: > 70 µM (inactive)

O=C(CCCCCn1c(SCc2ccncc2)nc2ccccc2c1=O)NCc1ccco1
IC50 [6]: 73.1 µM (not active) | IC50 [7]: 35.8 µM (active) | IC50 [8]: > 20 µM (inactive)

CN(C)C(=O)c1cccc(-c2ccc([C@H]3[C@@H](CO)N4CCCCN(C(=O)C5CCCC5)C[C@@H]34)cc2)c1
AC50 [9]: 0.691 µM (active)

O=c1[nH]c(=O)n(Cc2ccco2)c2c1C(C(F)(F)F)(C(F)(F)F)NC(CCc1ccccc1)=N2
IC50 (Major prion protein): 8.51 µM (active) | IC50 (cells [1]): 54.4 µM (inactive)

Cc1c(CNCCc2ccccc2)c(C(=O)O)c(C)n1-c1ccccc1
EC50 [10]: > 260 µM (inactive) | IC50 [11]: 8.17 µM (active) | EC50 (cells [12]): > 29.9 µM (inactive) | EC50 [13]: 1.78 µM (active) | IC50 (cells [14]): > 29.9 µM (inactive)

C[C@H](CO)N1C[C@H](C)[C@@H](CN(C)Cc2ccc(-c3ccccc3)cc2)Oc2ccc(NS(=O)(=O)c3ccccc3)cc2CC1=O
AC50 (Paired box protein Pax-8): 17.4 µM (active) | AC50 [15]: 37.2 µM (active) | AC50 [16]: 30.4 µM (active) | AC50 [17]: 8 µM (active) | AC50 [18]: 14.8 µM (active) | AC50 [19]: 26.3 µM (active)

CC(C)N1C[C@@H](CN(C)Cc2ccc(Cl)cc2)Oc2c(NC(=O)c3ccccc3)cccc2C1=O
AC50 [9]: 1.49 µM (active)

CC(C)(C)c1ccc(OC(=O)N2CCCCC2)cc1
EC50 [20]: < 0.1 µM (active) | EC50 (H4): 44.5 µM (active) | EC50 [21]: 1.01 µM (active) | EC50 [22]: 0.364 µM (active) | EC50 [23]: 1.13 µM (active)

COC(=O)c1cccc(Cn2nnc3ccccc3c2=O)c1
IC50 [6]: 78.8 µM (not active)

Cc1nn(Cc2ccccc2Cl)c2sc(C(=O)NCc3ccc4c(c3)OCO4)cc12
IC50 [24]: > 69.5 µM (inactive) | IC50 [25]: > 69.5 µM (inactive)

Cc1ccc(NC(=S)c2nc3ccccc3[nH]2)c(C)c1
EC50 (Streptokinase A): > 150 µM (not active) | EC50 [26]: 3.65 µM (active)

COC(=O)c1cc(O)c(O)c(O)c1 [GALLIC ACID METHYL ESTER]
AC50 [27]: 4.94 µM (active) | IC50 (Albumin): > 94.3 µM (inactive)

CCN(CC)c1ccc(SS(=O)(=O)O)cc1
IC50 [28]: > 66 µM (inactive) | IC50 [29]: 4.53 µM (active) | AC50 (Cytochrome P450 2C9): 5.01 µM (inconclusive) | IC50 [30]: > 66 µM (inactive)

Cc1cccc(/C=N\Nc2cnnc(O)c2Cl)c1
AC50 [31]: 1.06 µM (active) | IC50 [11]: 7.33 µM (active) | AC50 (Cytochrome P450 2C9): 28.2 µM (inconclusive) | EC50 (cells [12]): > 29.9 µM (inactive) | AC50 [5]: 0.76 µM (active) | EC50 [13]: 1.28 µM (active) | IC50 (cells [14]): > 29.9 µM (inactive)
